According to patent US11572590B2, “Methods for evaluating tumor cell spheroids using 3D microfluidic cell culture device” (Dana-Farber Cancer Institute, Inc., priority 2017, dated 2023):
Like-named read-outs stand apart in the source and are kept apart here.

Experiments:
Assay in all cases: SelectScreen Kinase Profiling, single point inhibition and IC50 for off-target kinases
Type in all cases: biochemical
off-target kinases [1] = biological target: off-target kinases (Homo sapiens, UniProt Q9UM73, L1196M); details: ALKL1196M (mutant), LanthaScreen Binding
off-target kinases [2] = biological target: T1, off-target kinases (Homo sapiens, UniProt Q9NRM7); details: LATS2, LanthaScreen Binding
T1 sequence (Q9NRM7 1-1088): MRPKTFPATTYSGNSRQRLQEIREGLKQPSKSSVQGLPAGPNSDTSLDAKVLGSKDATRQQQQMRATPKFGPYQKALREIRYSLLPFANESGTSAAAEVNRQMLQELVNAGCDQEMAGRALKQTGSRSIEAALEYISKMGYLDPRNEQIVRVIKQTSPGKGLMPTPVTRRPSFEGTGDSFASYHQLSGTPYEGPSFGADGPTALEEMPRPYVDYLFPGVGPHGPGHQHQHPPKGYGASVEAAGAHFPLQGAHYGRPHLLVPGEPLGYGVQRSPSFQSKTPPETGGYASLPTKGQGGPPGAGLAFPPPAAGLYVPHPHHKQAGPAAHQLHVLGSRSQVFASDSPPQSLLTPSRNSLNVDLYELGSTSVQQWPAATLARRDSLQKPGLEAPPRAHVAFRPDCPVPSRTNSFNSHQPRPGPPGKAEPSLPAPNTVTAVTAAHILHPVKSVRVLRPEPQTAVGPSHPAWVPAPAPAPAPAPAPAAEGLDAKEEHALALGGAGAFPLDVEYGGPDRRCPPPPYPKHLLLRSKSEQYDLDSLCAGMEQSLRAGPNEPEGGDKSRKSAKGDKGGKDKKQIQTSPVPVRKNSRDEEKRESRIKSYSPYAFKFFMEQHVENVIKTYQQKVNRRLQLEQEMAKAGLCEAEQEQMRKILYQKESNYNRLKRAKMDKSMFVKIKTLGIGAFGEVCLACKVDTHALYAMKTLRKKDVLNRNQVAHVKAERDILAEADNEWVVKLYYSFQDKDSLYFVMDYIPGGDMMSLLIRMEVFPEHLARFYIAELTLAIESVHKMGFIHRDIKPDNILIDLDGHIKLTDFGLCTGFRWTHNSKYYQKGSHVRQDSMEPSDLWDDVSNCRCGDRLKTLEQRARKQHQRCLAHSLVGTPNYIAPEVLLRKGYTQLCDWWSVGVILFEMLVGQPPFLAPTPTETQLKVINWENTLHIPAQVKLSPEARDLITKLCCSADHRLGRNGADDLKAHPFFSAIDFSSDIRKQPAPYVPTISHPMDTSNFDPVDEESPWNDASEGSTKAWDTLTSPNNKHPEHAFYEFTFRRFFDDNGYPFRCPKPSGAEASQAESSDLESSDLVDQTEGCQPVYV

off-target kinases [3] = biological target: off-target kinases (Homo sapiens, UniProt P22612); details: PRKACG (PRKAC gamma), LanthaScreen Binding
off-target kinases [4] = biological target: off-target kinases (Homo sapiens, UniProt P10721, A829P); details: KIT A829P, LanthaScreen Binding
off-target kinases [5] = biological target: off-target kinases (Homo sapiens, UniProt P24723); details: PRKCH (PKC eta), ZLYTE, ATP Km app
Chain of off-target kinases (Homo sapiens, UniProt P24723) (P24723 whole entry): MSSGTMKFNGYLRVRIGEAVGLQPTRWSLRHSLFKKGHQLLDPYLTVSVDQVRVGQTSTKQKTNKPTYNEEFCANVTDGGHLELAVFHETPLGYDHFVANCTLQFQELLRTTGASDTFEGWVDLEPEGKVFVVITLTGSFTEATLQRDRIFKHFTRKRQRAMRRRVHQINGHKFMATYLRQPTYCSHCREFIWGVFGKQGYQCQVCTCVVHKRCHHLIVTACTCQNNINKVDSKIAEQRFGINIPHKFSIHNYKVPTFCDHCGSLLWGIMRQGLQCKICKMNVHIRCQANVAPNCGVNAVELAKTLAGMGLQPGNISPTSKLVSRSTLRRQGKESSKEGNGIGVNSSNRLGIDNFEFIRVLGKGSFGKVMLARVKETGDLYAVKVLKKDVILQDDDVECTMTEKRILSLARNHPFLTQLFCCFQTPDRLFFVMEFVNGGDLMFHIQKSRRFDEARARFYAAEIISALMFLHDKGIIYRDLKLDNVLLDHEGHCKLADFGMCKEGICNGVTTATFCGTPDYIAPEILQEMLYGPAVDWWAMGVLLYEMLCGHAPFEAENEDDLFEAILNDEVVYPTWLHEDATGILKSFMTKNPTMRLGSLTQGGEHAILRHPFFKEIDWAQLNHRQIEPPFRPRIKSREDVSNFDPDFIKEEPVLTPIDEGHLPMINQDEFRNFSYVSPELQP

Chain of off-target kinases (Homo sapiens, UniProt P22612) (P22612 whole entry): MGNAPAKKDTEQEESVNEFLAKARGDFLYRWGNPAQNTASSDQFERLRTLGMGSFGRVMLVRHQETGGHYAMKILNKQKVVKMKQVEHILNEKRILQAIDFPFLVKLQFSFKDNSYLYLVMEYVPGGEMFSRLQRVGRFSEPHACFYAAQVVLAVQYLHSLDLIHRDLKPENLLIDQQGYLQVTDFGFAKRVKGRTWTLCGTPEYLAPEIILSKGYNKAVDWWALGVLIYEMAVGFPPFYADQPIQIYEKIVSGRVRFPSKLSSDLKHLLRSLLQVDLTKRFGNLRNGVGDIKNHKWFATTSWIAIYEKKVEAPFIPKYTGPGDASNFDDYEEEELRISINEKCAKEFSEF
Chain of off-target kinases (Homo sapiens, UniProt Q9UM73, L1196M) (Q9UM73 19-1620 L1196M): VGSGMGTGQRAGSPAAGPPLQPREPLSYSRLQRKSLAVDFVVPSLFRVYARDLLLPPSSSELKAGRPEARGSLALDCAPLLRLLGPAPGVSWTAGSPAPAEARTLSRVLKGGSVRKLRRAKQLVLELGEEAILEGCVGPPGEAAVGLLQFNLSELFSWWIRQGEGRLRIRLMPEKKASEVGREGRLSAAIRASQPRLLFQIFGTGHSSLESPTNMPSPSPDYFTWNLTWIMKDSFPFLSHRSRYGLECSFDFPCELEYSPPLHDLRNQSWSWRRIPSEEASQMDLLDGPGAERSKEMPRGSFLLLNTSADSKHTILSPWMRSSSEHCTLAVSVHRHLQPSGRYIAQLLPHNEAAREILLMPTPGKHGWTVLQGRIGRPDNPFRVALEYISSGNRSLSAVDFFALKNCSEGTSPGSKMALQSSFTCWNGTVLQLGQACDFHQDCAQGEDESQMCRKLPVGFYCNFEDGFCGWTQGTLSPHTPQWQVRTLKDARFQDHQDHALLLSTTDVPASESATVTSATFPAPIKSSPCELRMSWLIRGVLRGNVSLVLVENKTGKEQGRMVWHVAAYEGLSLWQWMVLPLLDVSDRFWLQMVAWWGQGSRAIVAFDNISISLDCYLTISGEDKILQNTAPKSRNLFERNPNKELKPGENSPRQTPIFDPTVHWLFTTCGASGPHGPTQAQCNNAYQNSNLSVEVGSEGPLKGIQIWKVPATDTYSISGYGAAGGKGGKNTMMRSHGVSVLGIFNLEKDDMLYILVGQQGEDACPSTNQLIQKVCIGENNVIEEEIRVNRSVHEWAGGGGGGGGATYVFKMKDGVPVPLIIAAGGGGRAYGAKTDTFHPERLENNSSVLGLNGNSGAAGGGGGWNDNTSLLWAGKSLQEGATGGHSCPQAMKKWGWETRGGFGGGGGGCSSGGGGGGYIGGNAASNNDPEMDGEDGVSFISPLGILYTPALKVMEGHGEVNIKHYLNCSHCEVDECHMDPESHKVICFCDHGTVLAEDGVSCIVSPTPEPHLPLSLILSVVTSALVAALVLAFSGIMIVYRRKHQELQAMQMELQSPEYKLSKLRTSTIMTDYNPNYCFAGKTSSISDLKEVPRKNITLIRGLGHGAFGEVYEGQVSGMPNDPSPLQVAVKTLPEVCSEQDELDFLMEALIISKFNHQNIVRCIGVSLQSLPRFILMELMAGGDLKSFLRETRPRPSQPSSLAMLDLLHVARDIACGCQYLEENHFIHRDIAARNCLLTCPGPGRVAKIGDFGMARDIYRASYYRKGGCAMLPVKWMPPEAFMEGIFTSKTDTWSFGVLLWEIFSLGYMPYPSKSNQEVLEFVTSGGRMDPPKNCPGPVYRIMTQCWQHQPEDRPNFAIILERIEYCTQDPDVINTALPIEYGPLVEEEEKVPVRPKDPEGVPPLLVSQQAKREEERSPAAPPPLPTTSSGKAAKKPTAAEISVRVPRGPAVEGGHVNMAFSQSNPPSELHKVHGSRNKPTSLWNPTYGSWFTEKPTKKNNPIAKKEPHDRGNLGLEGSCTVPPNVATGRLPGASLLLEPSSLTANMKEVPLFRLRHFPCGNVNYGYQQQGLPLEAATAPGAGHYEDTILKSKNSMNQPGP
Chain of off-target kinases (Homo sapiens, UniProt P10721, A829P) (P10721 26-976 A829P): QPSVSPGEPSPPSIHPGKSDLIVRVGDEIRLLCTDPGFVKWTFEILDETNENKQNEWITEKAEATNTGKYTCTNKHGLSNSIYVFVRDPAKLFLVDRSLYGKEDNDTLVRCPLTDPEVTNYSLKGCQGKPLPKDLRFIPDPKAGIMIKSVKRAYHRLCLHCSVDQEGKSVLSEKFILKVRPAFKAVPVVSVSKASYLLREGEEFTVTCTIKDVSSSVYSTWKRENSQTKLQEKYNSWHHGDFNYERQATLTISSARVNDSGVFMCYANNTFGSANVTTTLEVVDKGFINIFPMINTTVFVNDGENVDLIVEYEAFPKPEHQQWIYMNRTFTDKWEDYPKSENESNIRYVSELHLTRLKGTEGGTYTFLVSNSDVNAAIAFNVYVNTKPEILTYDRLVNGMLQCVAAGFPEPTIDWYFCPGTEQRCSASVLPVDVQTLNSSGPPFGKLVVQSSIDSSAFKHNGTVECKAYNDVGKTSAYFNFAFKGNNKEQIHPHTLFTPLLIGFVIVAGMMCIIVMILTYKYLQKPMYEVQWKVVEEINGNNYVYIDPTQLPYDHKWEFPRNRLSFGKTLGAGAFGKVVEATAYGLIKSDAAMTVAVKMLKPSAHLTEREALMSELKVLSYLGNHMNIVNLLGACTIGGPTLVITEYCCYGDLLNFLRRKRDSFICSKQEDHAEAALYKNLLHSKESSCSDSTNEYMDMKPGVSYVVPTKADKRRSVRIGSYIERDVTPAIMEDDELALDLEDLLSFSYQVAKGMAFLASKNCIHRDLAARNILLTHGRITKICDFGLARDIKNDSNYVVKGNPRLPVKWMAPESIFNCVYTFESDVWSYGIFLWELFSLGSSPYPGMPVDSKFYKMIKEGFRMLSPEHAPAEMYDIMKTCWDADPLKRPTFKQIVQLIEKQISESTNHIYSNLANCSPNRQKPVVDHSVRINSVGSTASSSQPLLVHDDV

Structure (SMILES): N#Cc1cc(-c2ncnc(Nc3ccc(N4CCN(C5COC5)CC4)cc3)n2)ccc1OC1CCOCC1 [Compound 1, 5-(4-((4-(4-(oxetan-3-yl)piperazin-1-yl)phenyl)amino)-1,3,5-triazin-2-yl)-2-((tetrahydro-2H-pyran-4-yl)oxy)benzonitrile]
- inhibition (off-target kinases [1]; read-out: % Inhibition 1): 1%
- inhibition (off-target kinases [1]; read-out: % Inhibition 2): 9%
- inhibition (off-target kinases [1]; read-out: % Inhibition Avg): 5%
- inhibition (off-target kinases [2]; read-out: % Inhibition 1): 23%
- inhibition (off-target kinases [2]; read-out: % Inhibition 2): 25%
- inhibition (off-target kinases [2]; read-out: % Inhibition Avg): 24%
- inhibition (off-target kinases [3]; read-out: % Inhibition 1): 28%
- inhibition (off-target kinases [3]; read-out: % Inhibition 2): 19%
- inhibition (off-target kinases [3]; read-out: % Inhibition Avg): 24%
- inhibition (off-target kinases [4]; read-out: % Inhibition 1): 91%
- inhibition (off-target kinases [4]; read-out: % Inhibition 2): 90%
- inhibition (off-target kinases [4]; read-out: % Inhibition Avg): 90%
- inhibition (off-target kinases [5]; read-out: % Inhibition 1): 12%
- inhibition (off-target kinases [5]; read-out: % Inhibition 2): 8%
- inhibition (off-target kinases [5]; read-out: % Inhibition Avg): 10%
